Active and inactive are the calls of the source. The rule behind the calls is not given here.
Tests used:
MOLT-4 = test: Antiproliferative activity against human MOLT-4 cells assessed as reduction in cell viability measured after 48 hrs by MTS assay; type: functional, cell-based; details: MOLT-4, 48 h
[1] = target: von Hippel-Lindau disease tumor suppressor/Bcl-2-like protein 1 (Homo sapiens, UniProt Q07817+P40337); test: Protac activity at VHL/BCL-XL in human MOLT-4 cells assessed as induction of BCL-XL degradation by measuring remaining BCL-XL level at 100 nM measured after 16 hrs by immunoblotting analysis relative to control; type: cell-based
Chain of von Hippel-Lindau disease tumor suppressor/Bcl-2-like protein 1 (P40337 whole entry, looked up): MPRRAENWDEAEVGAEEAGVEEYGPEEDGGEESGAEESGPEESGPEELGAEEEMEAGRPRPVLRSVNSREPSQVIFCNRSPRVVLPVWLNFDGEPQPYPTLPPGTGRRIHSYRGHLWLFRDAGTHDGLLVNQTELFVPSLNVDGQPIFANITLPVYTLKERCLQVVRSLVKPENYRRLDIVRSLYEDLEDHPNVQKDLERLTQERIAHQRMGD
Chain of von Hippel-Lindau disease tumor suppressor/Bcl-2-like protein 1 (Q07817 whole entry, looked up): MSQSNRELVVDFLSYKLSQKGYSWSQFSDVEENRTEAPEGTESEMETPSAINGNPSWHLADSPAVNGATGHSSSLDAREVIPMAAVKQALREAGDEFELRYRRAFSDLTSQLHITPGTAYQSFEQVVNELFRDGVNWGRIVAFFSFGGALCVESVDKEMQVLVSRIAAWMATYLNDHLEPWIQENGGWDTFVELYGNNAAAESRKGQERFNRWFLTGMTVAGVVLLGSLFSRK

[2] = target: von Hippel-Lindau disease tumor suppressor/Apoptosis regulator Bcl-2 (Homo sapiens) (UniProt P10415+P40337); test: Protac activity at VHL/BCL2 in human MOLT-4 cells assessed as induction of BCL2 degradation at 100 nM measured after 16 hrs by immunoblotting analysis; type: cell-based
Chain of von Hippel-Lindau disease tumor suppressor/Apoptosis regulator Bcl-2 (Homo sapiens) (P10415 whole entry, looked up): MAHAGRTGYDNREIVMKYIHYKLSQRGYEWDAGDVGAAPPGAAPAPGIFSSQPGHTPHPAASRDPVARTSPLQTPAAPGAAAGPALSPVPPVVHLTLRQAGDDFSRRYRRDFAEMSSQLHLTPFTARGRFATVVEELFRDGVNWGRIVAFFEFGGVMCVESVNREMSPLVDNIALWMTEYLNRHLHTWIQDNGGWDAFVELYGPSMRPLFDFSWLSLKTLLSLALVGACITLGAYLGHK
Chain of von Hippel-Lindau disease tumor suppressor/Apoptosis regulator Bcl-2 (Homo sapiens) (P40337 whole entry, looked up): as the sequence (P40337 whole entry, looked up) above

[3] = target: Protein cereblon/Bcl-2-like protein 1 (Homo sapiens, UniProt Q07817+Q96SW2); test: Protac activity at CRBN/BCL-XL in human MOLT-4 cells assessed as induction of BCL-XL degradation by measuring remaining BCL-XL level at 50 nM measured after 16 hrs by immunoblotting analysis relative to control; type: cell-based
Chain of Protein cereblon/Bcl-2-like protein 1 (Q07817 whole entry, looked up): as the sequence (Q07817 whole entry, looked up) above
Chain of Protein cereblon/Bcl-2-like protein 1 (Q96SW2 whole entry, looked up): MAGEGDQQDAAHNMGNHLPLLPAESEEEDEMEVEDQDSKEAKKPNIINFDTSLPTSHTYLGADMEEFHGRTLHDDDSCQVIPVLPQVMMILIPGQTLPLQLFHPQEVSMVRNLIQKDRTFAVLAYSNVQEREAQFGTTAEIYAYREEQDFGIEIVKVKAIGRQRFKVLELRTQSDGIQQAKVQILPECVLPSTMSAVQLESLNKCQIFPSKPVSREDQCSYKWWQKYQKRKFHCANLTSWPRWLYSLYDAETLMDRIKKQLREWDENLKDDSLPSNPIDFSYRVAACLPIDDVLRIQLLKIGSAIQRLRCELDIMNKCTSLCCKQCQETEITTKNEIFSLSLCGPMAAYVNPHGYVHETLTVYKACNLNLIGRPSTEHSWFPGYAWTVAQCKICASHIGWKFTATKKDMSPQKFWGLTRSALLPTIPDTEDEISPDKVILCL

[4] = target: Protein cereblon/Apoptosis regulator Bcl-2 (Homo sapiens) (UniProt P10415+Q96SW2); test: Protac activity at CRBN/BCL2 in human MOLT-4 cells assessed as induction of BCL2 degradation at 50 nM measured after 16 hrs by immunoblotting analysis; type: cell-based
Chain of Protein cereblon/Apoptosis regulator Bcl-2 (Homo sapiens) (P10415 whole entry, looked up): as the sequence (P10415 whole entry, looked up) above
Chain of Protein cereblon/Apoptosis regulator Bcl-2 (Homo sapiens) (Q96SW2 whole entry, looked up): as the sequence (Q96SW2 whole entry, looked up) above

Cc1ncsc1-c1ccc([C@H](C)NC(=O)[C@@H]2C[C@@H](O)CN2C(=O)[C@@H](NC(=O)CCCCCCCCN(C)CC[C@H](CSc2ccccc2)Nc2ccc(S(=O)(=O)NC(=O)c3ccc(N4CCN(CC5=C(c6ccc(Cl)cc6)CCC(C)(C)C5)CC4)cc3)cc2S(=O)(=O)C(F)(F)F)C(C)(C)C)cc1
IC50 (MOLT-4): 139 nM | Activity [1]: 49% | Activity [2]: inactive

CN(CC[C@H](CSc1ccccc1)Nc1ccc(S(=O)(=O)NC(=O)c2ccc(N3CCN(CC4=C(c5ccc(Cl)cc5)CCC(C)(C)C4)CC3)cc2)cc1S(=O)(=O)C(F)(F)F)C(=O)CCCn1cc(COCCOCCNc2cccc3c2C(=O)N([C@@H]2CCC(=O)NC2=O)C3=O)nn1
IC50 (MOLT-4): 770 nM | Activity [3]: 66% | Activity [4]: inactive

CC1(C)CCC(c2ccc(Cl)cc2)=C(CN2CCN(c3ccc(C(=O)NS(=O)(=O)c4ccc(N[C@H](CCN5CCN(C(=O)CCCCCCCNc6cccc7c6C(=O)N([C@@H]6CCC(=O)NC6=O)C7=O)CC5)CSc5ccccc5)c(S(=O)(=O)C(F)(F)F)c4)cc3)CC2)C1
IC50 (MOLT-4): > 2000 nM | Activity [3]: 89% | Activity [4]: inactive

CC1(C)CCC(c2ccc(Cl)cc2)=C(CN2CCN(c3ccc(C(=O)NS(=O)(=O)c4ccc(N[C@H](CCN5CCN(C(=O)CCCCNc6cccc7c6C(=O)N([C@@H]6CCC(=O)NC6=O)C7=O)CC5)CSc5ccccc5)c(S(=O)(=O)C(F)(F)F)c4)cc3)CC2)C1
IC50 (MOLT-4): 346 nM | Activity [3]: 81% | Activity [4]: inactive

CN(CCOCCOCCOCCOCCNc1cccc2c1C(=O)N([C@@H]1CCC(=O)NC1=O)C2=O)CC[C@H](CSc1ccccc1)Nc1ccc(S(=O)(=O)NC(=O)c2ccc(N3CCN(CC4=C(c5ccc(Cl)cc5)CCC(C)(C)C4)CC3)cc2)cc1S(=O)(=O)C(F)(F)F
IC50 (MOLT-4): 19.3 nM | Activity [3]: 5% | Activity [4]: inactive

CC1(C)CCC(c2ccc(Cl)cc2)=C(CN2CCN(c3ccc(C(=O)NS(=O)(=O)c4ccc(N[C@H](CCN5CCN(CCOCCOCCNc6cccc7c6C(=O)N([C@@H]6CCC(=O)NC6=O)C7=O)CC5)CSc5ccccc5)c(S(=O)(=O)C(F)(F)F)c4)cc3)CC2)C1
IC50 (MOLT-4): 41.4 nM | Activity [3]: 13% | Activity [4]: inactive

CC1(C)CCC(c2ccc(Cl)cc2)=C(CN2CCN(c3ccc(C(=O)NS(=O)(=O)c4ccc(N[C@H](CCN5CCN(CCCCCNc6cccc7c6C(=O)N([C@@H]6CCC(=O)NC6=O)C7=O)CC5)CSc5ccccc5)c(S(=O)(=O)C(F)(F)F)c4)cc3)CC2)C1
IC50 (MOLT-4): 100 nM | Activity [3]: 45% | Activity [4]: inactive

CC1(C)CCC(c2ccc(Cl)cc2)=C(CN2CCN(c3ccc(C(=O)NS(=O)(=O)c4ccc(N[C@H](CCN5CCN(C(=S)NCCOCCOCCNc6cccc7c6C(=O)N([C@@H]6CCC(=O)NC6=O)C7=O)CC5)CSc5ccccc5)c(S(=O)(=O)C(F)(F)F)c4)cc3)CC2)C1 (racemic)
IC50 (MOLT-4): 722 nM | Activity [3]: 76% | Activity [4]: inactive

CC1(C)CCC(c2ccc(Cl)cc2)=C(CN2CCN(c3ccc(C(=O)NS(=O)(=O)c4ccc(N[C@H](CCN5CCN(C(=O)NCCOCCOCCNc6cccc7c6C(=O)N([C@@H]6CCC(=O)NC6=O)C7=O)CC5)CSc5ccccc5)c(S(=O)(=O)C(F)(F)F)c4)cc3)CC2)C1
IC50 (MOLT-4): 118 nM | Activity [3]: 27% | Activity [4]: inactive

CN(CCCCNc1cccc2c1C(=O)N([C@@H]1CCC(=O)NC1=O)C2=O)CC[C@H](CSc1ccccc1)Nc1ccc(S(=O)(=O)NC(=O)c2ccc(N3CCN(CC4=C(c5ccc(Cl)cc5)CCC(C)(C)C4)CC3)cc2)cc1S(=O)(=O)C(F)(F)F
IC50 (MOLT-4): 38.7 nM | Activity [3]: 40% | Activity [4]: inactive

CN(CCCCCCNc1cccc2c1C(=O)N([C@@H]1CCC(=O)NC1=O)C2=O)CC[C@H](CSc1ccccc1)Nc1ccc(S(=O)(=O)NC(=O)c2ccc(N3CCN(CC4=C(c5ccc(Cl)cc5)CCC(C)(C)C4)CC3)cc2)cc1S(=O)(=O)C(F)(F)F
IC50 (MOLT-4): 147 nM | Activity [3]: 73% | Activity [4]: inactive

CC1(C)CCC(c2ccc(Cl)cc2)=C(CN2CCN(c3ccc(C(=O)NS(=O)(=O)c4ccc(N[C@H](CCN5CCN(CCOCCNc6cccc7c6C(=O)N([C@@H]6CCC(=O)NC6=O)C7=O)CC5)CSc5ccccc5)c(S(=O)(=O)C(F)(F)F)c4)cc3)CC2)C1
IC50 (MOLT-4): 60.5 nM | Activity [3]: 20% | Activity [4]: inactive

CN(CCCCCCCCNc1cccc2c1C(=O)N([C@@H]1CCC(=O)NC1=O)C2=O)CC[C@H](CSc1ccccc1)Nc1ccc(S(=O)(=O)NC(=O)c2ccc(N3CCN(CC4=C(c5ccc(Cl)cc5)CCC(C)(C)C4)CC3)cc2)cc1S(=O)(=O)C(F)(F)F
IC50 (MOLT-4): > 2000 nM | Activity [3]: 94% | Activity [4]: inactive

CN(CC[C@H](CSc1ccccc1)Nc1ccc(S(=O)(=O)NC(=O)c2ccc(N3CCN(CC4=C(c5ccc(Cl)cc5)CCC(C)(C)C4)CC3)cc2)cc1S(=O)(=O)C(F)(F)F)C(=O)CCCCCCn1cc(COCCOCCOCCNc2cccc3c2C(=O)N([C@@H]2CCC(=O)NC2=O)C3=O)nn1
IC50 (MOLT-4): 179 nM | Activity [3]: 29% | Activity [4]: inactive

CC1(C)CCC(c2ccc(Cl)cc2)=C(CN2CCN(c3ccc(C(=O)NS(=O)(=O)c4ccc(N[C@H](CCN5CCN(C(=O)CCCNc6cccc7c6C(=O)N([C@@H]6CCC(=O)NC6=O)C7=O)CC5)CSc5ccccc5)c(S(=O)(=O)C(F)(F)F)c4)cc3)CC2)C1
Activity [3]: 44% | Activity [4]: inactive

CC1(C)CCC(c2ccc(Cl)cc2)=C(CN2CCN(c3ccc(C(=O)NS(=O)(=O)c4ccc(N[C@H](CCN5CCN(C(=O)COCCOCCNc6cccc7c6C(=O)N([C@@H]6CCC(=O)NC6=O)C7=O)CC5)CSc5ccccc5)c(S(=O)(=O)C(F)(F)F)c4)cc3)CC2)C1
IC50 (MOLT-4): 161 nM | Activity [3]: 20% | Activity [4]: inactive

CN(CC[C@H](CSc1ccccc1)Nc1ccc(S(=O)(=O)NC(=O)c2ccc(N3CCN(CC4=C(c5ccc(Cl)cc5)CCC(C)(C)C4)CC3)cc2)cc1S(=O)(=O)C(F)(F)F)C(=O)CCCn1cc(COCCOCCOCCNc2cccc3c2C(=O)N([C@@H]2CCC(=O)NC2=O)C3=O)nn1
IC50 (MOLT-4): 769 nM | Activity [3]: 67% | Activity [4]: inactive

CN(CCCCCCCn1cc(COCCOCCOCCNc2cccc3c2C(=O)N([C@@H]2CCC(=O)NC2=O)C3=O)nn1)CC[C@H](CSc1ccccc1)Nc1ccc(S(=O)(=O)NC(=O)c2ccc(N3CCN(CC4=C(c5ccc(Cl)cc5)CCC(C)(C)C4)CC3)cc2)cc1S(=O)(=O)C(F)(F)F
Activity [3]: 24% | Activity [4]: inactive

CN(CCCCCNc1cccc2c1C(=O)N([C@@H]1CCC(=O)NC1=O)C2=O)CC[C@H](CSc1ccccc1)Nc1ccc(S(=O)(=O)NC(=O)c2ccc(N3CCN(CC4=C(c5ccc(Cl)cc5)CCC(C)(C)C4)CC3)cc2)cc1S(=O)(=O)C(F)(F)F
IC50 (MOLT-4): 60.9 nM | Activity [3]: 47% | Activity [4]: inactive

CC1(C)CCC(c2ccc(Cl)cc2)=C(CN2CCN(c3ccc(C(=O)NS(=O)(=O)c4ccc(N[C@H](CCN5CCN(C(=O)CCCCCCNc6cccc7c6C(=O)N([C@@H]6CCC(=O)NC6=O)C7=O)CC5)CSc5ccccc5)c(S(=O)(=O)C(F)(F)F)c4)cc3)CC2)C1
IC50 (MOLT-4): > 2000 nM | Activity [3]: 101% | Activity [4]: inactive

CC1(C)CCC(c2ccc(Cl)cc2)=C(CN2CCN(c3ccc(C(=O)NS(=O)(=O)c4ccc(N[C@H](CCN5CCN(CCCCNc6cccc7c6C(=O)N([C@@H]6CCC(=O)NC6=O)C7=O)CC5)CSc5ccccc5)c(S(=O)(=O)C(F)(F)F)c4)cc3)CC2)C1
IC50 (MOLT-4): 43 nM | Activity [3]: 20% | Activity [4]: inactive

CC1(C)CCC(c2ccc(Cl)cc2)=C(CN2CCN(c3ccc(C(=O)NS(=O)(=O)c4ccc(N[C@H](CCN5CCN(C(=O)COCCOCCOCCOCCNc6cccc7c6C(=O)N([C@@H]6CCC(=O)NC6=O)C7=O)CC5)CSc5ccccc5)c(S(=O)(=O)C(F)(F)F)c4)cc3)CC2)C1
IC50 (MOLT-4): 126 nM | Activity [3]: 11% | Activity [4]: inactive

CC1(C)CCC(c2ccc(Cl)cc2)=C(CN2CCN(c3ccc(C(=O)NS(=O)(=O)c4ccc(N[C@H](CCN5CCN(CCCNc6cccc7c6C(=O)N([C@@H]6CCC(=O)NC6=O)C7=O)CC5)CSc5ccccc5)c(S(=O)(=O)C(F)(F)F)c4)cc3)CC2)C1 (mixture of isomers)
Activity [3]: 30% | Activity [4]: inactive

CC1(C)CCC(c2ccc(Cl)cc2)=C(CN2CCN(c3ccc(C(=O)NS(=O)(=O)c4ccc(N[C@H](CCN5CCN(C(=O)COCCOCCOCCNc6cccc7c6C(=O)N([C@@H]6CCC(=O)NC6=O)C7=O)CC5)CSc5ccccc5)c(S(=O)(=O)C(F)(F)F)c4)cc3)CC2)C1
IC50 (MOLT-4): 211 nM | Activity [3]: 21% | Activity [4]: inactive

CN(CC[C@H](CSc1ccccc1)Nc1ccc(S(=O)(=O)NC(=O)c2ccc(N3CCN(CC4=C(c5ccc(Cl)cc5)CCC(C)(C)C4)CC3)cc2)cc1S(=O)(=O)C(F)(F)F)C(=O)CCCCCCn1cc(COCCOCCNc2cccc3c2C(=O)N([C@@H]2CCC(=O)NC2=O)C3=O)nn1
IC50 (MOLT-4): 177 nM | Activity [3]: 28% | Activity [4]: inactive

CC1(C)CCC(c2ccc(Cl)cc2)=C(CN2CCN(c3ccc(C(=O)NS(=O)(=O)c4ccc(N[C@H](CCN5CCN(C(=O)CCCCCNc6cccc7c6C(=O)N([C@@H]6CCC(=O)NC6=O)C7=O)CC5)CSc5ccccc5)c(S(=O)(=O)C(F)(F)F)c4)cc3)CC2)C1
IC50 (MOLT-4): 518 nM | Activity [3]: 63% | Activity [4]: inactive

CN(CCOCCOCCNc1cccc2c1C(=O)N([C@@H]1CCC(=O)NC1=O)C2=O)CC[C@H](CSc1ccccc1)Nc1ccc(S(=O)(=O)NC(=O)c2ccc(N3CCN(CC4=C(c5ccc(Cl)cc5)CCC(C)(C)C4)CC3)cc2)cc1S(=O)(=O)C(F)(F)F
IC50 (MOLT-4): 35 nM | Activity [3]: 11% | Activity [4]: inactive

From ChEMBL document CHEMBL4680217, “Discovery of PROTAC BCL-X degraders as potent anticancer agents with low on-target platelet toxicity” (Eur J Med Chem, 2020)
